From patent publication US6262104A, “Diarylalkenylamine derivatives” (SmithKline Beecham p.l.c., priority 1995, dated 2001) come the findings set out here.

Structures can show the parent of a compound that is named as a salt.

For this test, the target named is T1, delta (Mus musculus, UniProt P32300).
T1 construct: Vasa deferentia were obtained from CD-1 mice; from tissue; host or cells: vas deferens of CD-1 mice
Put plainly: Mouse vas deferens (MVD) bioassay, delta agonist/antagonist activity. Particulars: CD-1 mouse vasa deferentia, electrically stimulated, Mg2+-free Krebs buffer, 37° C. The procedure: The delta agonist/antagonist activity of the compounds of the present invention is determined in the mouse vas deferens (MVD) bioassay as described below.
Vasa deferentia were obtained from CD-1 mice and were suspended in a Mg^2+ - free Krebsa buffer at 37° C. The tissues were electrically stimulated with pulse trains having the following parameters: train duration 50 ms, stimulus duration 2 ms, frequency of stimuli 50 Hz, maximal voltage 60-70 V, train frequency 0.1 Hz. Concentration response curves for each compounds were constructed cumulatively. Linear regression analysis and IC50 concentrations were evaluated according to Talarida and Murray (Manual of Pharmacological Calculations, Springer Verlag NY, 1981).

T1 sequence (P32300 whole entry): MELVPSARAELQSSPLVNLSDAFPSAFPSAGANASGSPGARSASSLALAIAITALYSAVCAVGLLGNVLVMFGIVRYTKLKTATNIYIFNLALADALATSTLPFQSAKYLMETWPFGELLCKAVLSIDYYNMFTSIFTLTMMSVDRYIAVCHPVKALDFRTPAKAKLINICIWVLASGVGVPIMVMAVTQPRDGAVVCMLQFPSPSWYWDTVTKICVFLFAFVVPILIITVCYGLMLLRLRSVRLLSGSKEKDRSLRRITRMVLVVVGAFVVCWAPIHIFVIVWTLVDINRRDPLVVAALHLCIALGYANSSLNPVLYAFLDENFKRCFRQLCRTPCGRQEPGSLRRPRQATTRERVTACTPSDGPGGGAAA

Broadly, the IC50 is the concentration that inhibits the measured activity by half. The low end stands for greater potency in that assay, the high end for weaker potency in that assay. The compound `CCN(CC)C(=O)c1ccc(/C(=C\CN2CCCC2)c2cccc(O)c2)cc1` [Example 2, (E)-N,N-Diethyl-4-[[1-(3-hydroxyphenyl)-3-pyrrolidin-1-yl]-1-propenyl]benzamide citrate] displayed an IC50 of 30 nM.
